3 substances from patent publication US20240226285A9, “IMMUNOSTIMULATORY COMPOSITIONS” (Bayer Animal Health GmbH, priority 2020, published 2024) can be followed below.

In series [1] the test system is NF-κB pathway. Put plainly: NF-κB dependent pathway readout (SEAP, pNPP assay) in J774-Dual reporter cell line. It is filed as cell-based, murine. The settings on record: for activation of the NF-κB pathway (SEAP levels) compared to untreated J774-DUAL / activation of the NF-κB pathway (increase of SEAP levels in supernatant, normalized to protein content): J774-DUAL cells, 48 h; for activation of the NF-κB pathway (increase of SEAP levels in supernatant, normalized to protein content): FIG. 1, class C ODN, oligonucleotide-liposome complexes, 1.85 μg/mL oligonucleotide. Here is the method:
(§1) J774-DUAL™ cells (InvivoGen, murine NF-kB & IRF Reporter macrophage-like cells) were grown in Dulbecco's minimum essential medium (DMEM) with high D-glucose content, 1 mM sodium pyruvate and 4 mM stable glutamine. DMEM was supplemented with 10% FBS, 50 μg/mL streptomycin, 50 U/mL penicillin G and 100 μg/mL Normocin™. Every other week, the culture medium was additionally supplemented with 200 μg/mL Zeocin™ and 20 μg/mL Blasticidin.
(§2) For experimental series, serum free DMEM without phenol red was prepared containing 1 mM sodium pyruvate, 4 mM L-glutamine, 50 μg/mL streptomycin, 50 U/mL penicillin G, 100 μg/mL Normocin™, 200 μg/mL Zeocin™ and 20 μg/mL Blasticidin. J774-DUAL™ cell line was split once per week with a splitting ratio of 1:4.
J774-DUAL™ cells were cultivated in a Heracell™ 150 incubator (Thermo Scientific) at 37° C. with 5% C02 and 95% humidified air. For seeding, cells were counted using a Neubauer bright line hemocytometer (Marienfeld) with a volume 0.1 mm^3. Cell lines were regularly checked for absence of mycoplasmic contamination.
J774-Dual™ is a reporter cell line provided by Invivogen, which enables the simultaneous investigation of signal transduction resulting in the activation of the NF-κB and/or the IRF pathway.
J774-Dual™ cells express secreted embryonic alkaline phosphatase (SEAP) under the control of the NF-κB pathway. SEAP is secreted into the cell culture supernatant. Thus, a semi-quantitative analysis of NF-κB activation is possible (Invivogen product information (“J774-Dual Cells|NF-κB & IRF/IFN Reporter Macrophage” n.d., 774)). p-Nitrophenyl phosphate (pNPP) is a widely utilized chromogenic chemical for rapid determination of alkaline phosphatase activity. In the presence of alkaline phosphatase the substance is hydrolyzed into phosphate and the yellow para-Nitrophenol which can be measured spectrophotometrically (Bessey, Otto A., O. H. Lowky, and Mary Jane Brock. “A method for the rapid determination of alkaline phosphatase with five cubic millimeters of serum.” Journal of Biological Chemistry 164 (1946): 321-329.).
Cells were seeded with a density of 1×10^5 cells per well into 96-well microplates and given 24 h for adherence. The culture medium was removed and the cells were incubated with either naked CpG nucleic acids, liposomes or liposome-nucleic acid complexes in serum-free medium at 37° C. with 5% CO2 and 95% humidified air (Heracell™ 150, Thermo Scientific). Liposome with a LC20>40 μM were included in the experimental series. After 48 h of incubation 100 μL supernatant of each sample were transferred into 96-well microplates (SpectraPlate™-96 TC, Perkin Elmer) and analyzed spectrophotometrically using a p-Nitrophenyl phosphate assay.
To this end, 100 μL pNPP working reagent consisting of 20 mM pNPP in 50 mM NaHCO3 buffer (pH 9.6) were added to each well containing samples, controls or calibration standards. After the incubation of the mixture at 37° C. for 1 h, absorbance was determined using Victor3™ V multimode plate reader (Perkin Elmer) equipped with a 405 nm absorbance filter. Lipopolysaccharide from Salmonella anterica serotype Minnesota was applied as calibration standard to determine the linear range of the assay and as positive control. All experiments were conducted in triplicate.
Raw data was normalized to 10 μg/mL protein content and the average value of the untreated control was subtracted.

Series [2] has as its system IRF pathway. The series is described as follows: Interferon regulatory factor (IRF) pathway readout (Lucia luciferase, QUANTI-Luc) in J774-Dual reporter cell line. The format is cell-based, murine. The note with it: ODN complexed with liposomes comprising DOTAP+DOPE, DOTMA+DOPE or DDA+DOPE; 40 μM liposomal lipids, 1.85 μg/mL ODN; J774-DUAL cells, 48 h. Here is the method:
as §1, §2
J774-DUAL™ cells were cultivated in a Heracell™ 150 incubator (Thermo Scientific) at 37° C. with 5% C02 and 95% humidified air. For seeding, cells were counted using a Neubauer bright line hemocytometer (Marienfeld) with a volume 0.1 mm^3. Cell lines were regularly checked for absence of mycoplasmic contamination. […]
J774-Dual™ cells also express the Lucia luciferase gene under the control of the IRF pathway. […] By using QUANTI-Luc™ reagent, a semi-quantitative analysis of IRF activation is thus possible (Invivogen product information (“J774-Dual Cells|NF-κB & IRF/IFN Reporter Macrophage” n.d., 774).
Cells were seeded with a density of 1×10^5 cells per well into 96-well microplates and given 24 h for adherence. […] After 48 h of incubations, 50 μL supernatant of each sample were transferred into 96-well microplates (OptiPlate™-96 HS, Perkin Elmer) and analyzed using QUANTI-Luc™ luminescence assay according to the manufacturer's instructions.
QUANTI-Luc™ reagent was dissolved in 25 mL endotoxin-free water, and 50 μL were added to each well containing samples, controls or calibration standards. Luminescence was immediately determined using EnSpire® multimode plate reader (Perkin Elmer) and measured as relative light units (RLU). […]

For the substance “ODN 1668: class B immunostimulatory CpG oligonucleotide, SEQ ID NO. 3 (DNA TCCATGACGTTCCTGATGCT; listed as DNA, chemistry not given here)”, the “activation of the NF-κB pathway (SEAP levels) compared to untreated J774-DUAL” value in series [1] (FIG. 3, ODN complexed with liposomes, 40 μM liposomal lipids, 1.85 μg/mL ODN) was “increased NF-κB pathway activation”; in series [1] (FIG. 3, uncomplexed (naked) ODN 1.85 μg/mL), “increased NF-κB pathway activation”. Also, in series [1] (FIG. 3, all liposome complexes except those with liposomes comprising DOTMA+DOPE, 40 μM lipids, 1.85 μg/mL ODN), the “immunostimulatory potency (NF-κB pathway) of complexes compared to the uncomplexed ODN” value is “not significantly improved”. In addition, the “activation of the IRF pathway (increase of luciferase levels in supernatant, normalized to protein content)” value in series [2] is recorded as “potent IRF pathway activation was observed”.
Take “ODN 2395: class C immunostimulatory CpG oligonucleotide, SEQ ID NO. 1 (TCGTCGTTTTCGGCGCGCGCCG; listed as DNA, chemistry not given here)”: in series [1] (40 μM liposomal lipids), the “activation of the NF-κB pathway (increase of SEAP levels in supernatant, normalized to protein content)” value is listed as “potent NF-κB pathway activation was not observed”. In addition, the “activation of the IRF pathway (increase of luciferase levels in supernatant, normalized to protein content)” value in series [2] is on record as “potent IRF pathway activation was observed”.
For “ODN M362: class C immunostimulatory CpG oligonucleotide, SEQ ID NO. 2 (TCGTCGTCGTTCGAACGACGTTGAT; listed as DNA, chemistry not given here)” the same measures were “potent NF-κB pathway activation was not observed” and “potent IRF pathway activation was observed”.
